Publication PMC4772543, “Immune responses to Mycobacterial heat shock protein 70 accompany self-reactivity to human BiP in rheumatoid arthritis” (Scientific Reports, 2016)

Tests used:
[1] = system: PBMCs from shared epitope (SE)-positive RA patients; assay: Proliferation of PBMCs from RA patients in response to MycHSP70-derived peptides (3H-thymidine uptake); assay type: cell-based, human
Experimental: (§1) Figure 3 MycHSP70_287–306 was a HLA-DR4-restricted epitope in RA. (A) The proliferation of PBMCs in RA patients (Shared epitope (SE) +/+ n = 12, SE +/− n = 22, SE−/− n = 9) and HDs (SE +/− n = 10) in response to MycHSP70_287–306. Proliferation was determined by the incorporation of [3]-H thymidine. The stimulation index (SI) was calculated using the following equation: (median thymidine uptake to an antigen)/(median thymidine uptake in the absence of an antigen). Horizontal line: the median. (B) Amino acid sequences of MycHSP70 (lower lines) and human BiP (upper lines) near the epitopes. Epitope sequences are indicated in bold letters. […]
(§2) PBMCs (1 × 10^6/mL) isolated with Ficoll-Paque (GE Healthcare) were cultured in the presence or absence of each peptide (10 μg/mL) with RPMI 1640 medium supplemented with 10% human serum, 2 mM L-glutamine, 100 U/ml penicillin, and 100 μg/ml streptomycin in a humidified incubator at 37 °C, 5% CO2, for 96 hours. […] Counts per minute were measured with a scintillation counter. In some experiments, the culture supernatants were collected after a 72-hour incubation and cytokine concentrations were measured in the culture supernatants by a human IFN-γ high sensitivity ELISA kit and human IL-17 high sensitivity ELISA kit (eBioscience). […]

[2] = system: HLA-DR4-positive HD PBMCs; assay: Proliferation of healthy donor PBMCs in response to peptide (3H-thymidine uptake); assay type: cell-based, human; settings: HLA-DR4-positive healthy donors (SE +/− n = 10), peptide 10 μg/mL
Experimental: as §1, §2

[3] = system: splenic CD4+ T cells from CIA-induced DBA/1 J mice; assay: Splenic CD4+ T cell recall culture from CIA mice after oral peptide (proliferation, cytokine ELISA); assay type: cell-based, mouse
Experimental: (A,B) The MycHSP70_287–306 peptide or control (PBS alone) was orally administered to bovine type II collagen-immunized DBA/1 J mice after the occurrence of CIA for 5 continuous days (n = 12). Mice were sacrificed on day 35. Arthritis scores were measured by finger and paw swelling, and histological scores were measured by cell infiltration (C), pannus formation (P), and bone destruction (B). (C) Splenic CD4^+ T cell proliferation from CIA-induced DBA/1 J mice in response to a recall antigen (Ag) stimulation (MycHSP70_287–306 and BiP336–355 epitopes, and heat-denatured bovine type II collagen (BC II)). Proliferation was determined by[3]-H thymidine incorporation. (D) Serum anti-BiP and anti-BC II antibody titers were measured by ELISA. (E,F) Mouse IL-10 and TGF-beta1 concentrations in the splenic CD4^+ T cell culture were measured by ELISA.
HLA-DR4 transgenic mice were obtained from Taconic, immunized twice (day 0, 14) with 100 μg of MycHSP70 with the same volume of complete Freund’s adjuvant subcutaneously into the tails, and sacrificed on day 21. MACS-purified CD4^+ T cells (1 × 10^5/mL) were cultured with irradiated splenocytes (1 × 10^6/mL) and an antigen (10 μg/mL) in RPMI 1640 medium supplemented with 5% FCS, 2 mM L-glutamine, 100 U/ml penicillin, 100 μg/ml streptomycin, and 5 × 10^−5 M 2-mercaptoethanol in a humidified incubator at 37 °C, 5% CO2, for 72 h. ^3H-thymidine was pulsed to each well, cells were harvested after an 18-hour incubation, and analyzed with a scintillation counter.
CIA in the background of DBA/1 J female mice (SLC Japan) was performed and arthritis scores were acquired as previously described. In the therapeutic experiments, mice were administered 200 μg of MycHSP287–306 peptides orally for 5 continuous days following the onset of arthritis. Mice were sacrificed on day 35, and the CD4^+ T cell culture was performed as described above. Mouse cytokine concentrations in the supernatants were measured using a mouse IL-10 ELISA kit and mouse/human TGF-beta 1 ELISA kit (eBioscience) according to the manufacturer’s protocol. Tissue samples were embedded in paraffin wax after 10% formaldehyde fixation and decalcification. Sections were stained with hematoxylin and eosin. Synovial tissues were graded by mononuclear cell infiltration, pannus formation, and cartilage erosion, as described previously. All animal experiments were conducted in accordance with Institutional and National Guidelines, and the protocols were approved by the Ethical Committee on Animal Experiments of the University of Tokyo. […]
The experimental protocol was the same as Figure 6.
(A)(B)Mouse IL-17 and IFN-gamma concentrations in the splenic CD4+ T cell
culture was measured by ELISA (Mouse cytokine ELISA ready-set-go,
eBioscience) according to the manufacture’s protocol. […]

[4] = MycHSP70_287–306 and BiP336–355 recall stimulations, peptide-treated mice, ELISA
[5] = mice given MycHSP70_287–306 orally vs PBS, 3H-thymidine

DRTRKPFQSVIADTGISVSE [MycHSP70_287–306]
peptide-induced PBMC proliferation under blockade of HLA-DR ([1]; HLA-DR4-positive RA patients n = 6, anti-HLA DR monoclonal antibody (L243) 10 μg/mL): clearly inhibited | proliferation of PBMCs, mean stimulation index ([1]; screen of 43 MycHSP70-derived 20-mer peptides, 10 μg/mL, 96 hours, 3H-thymidine uptake, HLA-DR4-positive RA patients n = 20): highest proliferative responses | peptide-induced proliferation of HD PBMCs [2]: not observed | secretion of IL-10 from CD4+ T cells [3, 4]: induced | secretion of TGF-β1 from CD4+ T cells [3, 4]: induced | proliferation of CD4+ T cells in response to BiP336–355 recall [3, 5]: reduced | proliferation of CD4+ T cells in response to MycHSP70_287–306 recall [3, 5]: reduced | bovine type II collagen-specific T cell proliferation ([3]; mice given MycHSP70_287–306 orally vs PBS, heat-denatured BC II recall): suppressed | pro-inflammatory cytokine secretion from CD4+ T cells ([3]; mouse IL-17 and IFN-gamma by ELISA, mice given peptide orally vs PBS (Supplementary Figure S2)): suppressed
